Measured values from US8791050B2, “Herbicidal compositions” (priority 1998, dated 2014).

Columns and labels:
Type in all cases: in vivo
rice = experiment: Selectivity: damage to rice, field trial
Procedure: The damage and development of all above-ground parts of the plants were recorded. […] The scores of in each case 4 plots were averaged.
Crop plants were grown outdoors on plots under natural outdoor conditions, and seeds or rhizome pieces of typical harmful plants were laid out or the natural weed growth was utilized.

[1] = tested on: Amaranthus retroflexus (AMARE); experiment: Herbicidal effect in rice, field trial, Amaranthus retroflexus
Procedure: (§1) The herbicidal efficacy of the active compounds or active compound mixtures was scored visually using the treated plots in comparison to untreated control plots. The damage and development of all above-ground parts of the plants were recorded. Scoring was carried out using a percentage scale (100% effect=all plants killed; 50% effect=50% of the plants and the green parts of the plants killed; 0% effect=no noticeable effect=like control plot). The scores of in each case 4 plots were averaged.
(§2) If the observed activity values already exceed the formal sum of the values for the trials with the individual applications, they also exceed the expected value according to Colby which is calculated using the following formula and which is likewise considered to be an indication of synergism (cf. S. R. Colby; in Weeds 15 (1967) pp. 20 to 22): E=A+B−(A·B/100)
(§3) Crop plants were grown outdoors on plots under natural outdoor conditions, and seeds or rhizome pieces of typical harmful plants were laid out or the natural weed growth was utilized. Treatment with the compositions according to the invention was carried out after the harmful plants had emerged and the crop plants were, generally, at the 2- to 4-leaf stage; in some cases (as stated), application of individual active compounds or active compound combinations was carried out pre-emergence (cf. Example 1) or as a sequential treatment partly pre-emergence and/or post-emergence.
(§4) After the application, for example 2, 4, 6 and 8 weeks after the application, the effect of the preparations was scored visually by comparison with untreated controls (cf. scoring in Example 1). In the field trial as well, the compositions according to the invention have synergistic herbicidal activity against a broad spectrum of economically important weed grasses and broad-leaved weeds. […] Moreover, the effects in essential phases of the scoring period were above the expected values according to Colby (cf. scoring in Example 1), also indicating synergism. […]

[2] = tested on: Echinochloa colona (ECHCO); experiment: Herbicidal effect in rice, field trial, Echinochloa colona; details: post-emergence 2-4-leaf stage
Procedure: as §1, §2, §3
After the application, for example 2, 4, 6 and 8 weeks after the application, the effect of the preparations was scored visually by comparison with untreated controls (cf. scoring in Example 1). In the field trial as well, the compositions according to the invention have synergistic herbicidal activity against a broad spectrum of economically important weed grasses and broad-leaved weeds. […] Moreover, the effects in essential phases of the scoring period were above the expected values according to Colby (cf. scoring in Example 1), also indicating synergism. In contrast, the crop plants were, as a consequence of the treatments with the herbicidal compositions, damaged only to a small degree, if at all.

Cyperus iria (CYPIR) = experiment: Herbicidal effect in rice, field trial, Cyperus iria; details: Table 14 field trial, post-emergence 3-leaf stage, scoring 42 days after application
Procedure: as §1, §2, §3, §4

[3] = tested on: Sesbania exaltata (SEBEX); experiment: Herbicidal effect in rice, field trial, Sesbania exaltata; details: Table 1 field trial, post-emergence, scoring 7 days after application, 45 g of AS/ha
Procedure: as §1, §2
(§5) Crop plants were grown outdoors on plots under natural outdoor conditions, and seeds or rhizome pieces of typical harmful plants were laid out or the natural weed growth was utilized. […]
(§6) After the application, for example 2, 4, 6 and 8 weeks after the application, the effect of the preparations was scored visually by comparison with untreated controls (cf. scoring in Example 1). […]

Ipomoea spp (IPOSS) = experiment: Herbicidal effect in rice, field trial, Ipomoea spp; details: Table 11 field trial, post-emergence 2-4-leaf stage, scoring 28 days after application, 45 g of AS/ha
Procedure: as §1, §2, §5, §6

[4] = tested on: Cyperus difformis (CYPDI); experiment: Herbicidal effect in rice, field trial, Cyperus difformis; details: Table 11 field trial, post-emergence 2-4-leaf stage, scoring 28 days after application, 45 g of AS/ha
Procedure: as §1, §2, §5, §6

[5] = tested on: Ipomea hederaceae (IPOHE); experiment: Herbicidal effect in rice, field trial, Ipomea hederaceae; details: Table 8 field trial, post-emergence 2-4-leaf stage, scoring 28 days after application, 30 g of AS/ha
Procedure: as §1, §2, §5, §6

Eleusine indica (ELEIN) = experiment: Herbicidal effect in rice, field trial, Eleusine indica; details: Table 4 field trial, post-emergence 2-4-leaf stage, scoring 28 days after application
Procedure: as §1, §2, §3, §4

[6] = Table 9 field trial, post-emergence 2-4-leaf stage, scoring 28 days after application, 50 g of AS/ha

O=C(O)COc1nc(Cl)c(Cl)cc1Cl [(B3.1), triclopyr]
Damage (in %) to rice (rice; [6]): 18% | Herbicidal effect (in %) against AMARE [1, 6]: 66%

CCS(=O)(=O)Oc1ccc2c(c1)C(C)(C)CO2 [(B3.2), benfuresate]
Damage (in %) to rice (rice; in vivo): 0% | Herbicidal effect (in %) against ECHCO ([2]; Table 2 field trial, scoring 21 days after application, 400 g of AS/ha): 0%

CC1(C)CON(Cc2ccccc2Cl)C1=O [(B4.2), clomazone]
Damage (in %) to rice (rice; in vivo): 0% | Herbicidal effect (in %) against CYPIR (Cyperus iria (CYPIR); 300 g of AS/ha): 30%

COc1cc(OC)nc(Oc2cccc(Oc3nc(OC)cc(OC)n3)c2C(=O)[O-])n1.[Na+] [(B4.6), bispyribac-Na]
Herbicidal effect (%) against SEBEX [3]: 93% | Herbicidal effect (in %) against IPOSS (Ipomoea spp (IPOSS)): 91% | Herbicidal effect (in %) against CYPDI [4]: 75% | Herbicidal effect (%) against AMARE ([1]; Table 1 field trial, post-emergence, scoring 7 days after application, 45 g of AS/ha): 93%

CC(C)Oc1cc(-n2nc(C(C)(C)C)oc2=O)c(Cl)cc1Cl [(B4.8), oxadiazon]
Damage (in %) to rice (rice; in vivo): 0% | Herbicidal effect (in %) against CYPIR (Cyperus iria (CYPIR); 250 g of AS/ha): 75%

COc1cc(OC)nc(Oc2cccc(Oc3nc(OC)cc(OC)n3)c2C(=O)ON=C(c2ccccc2)c2ccccc2)n1 [(B4.25), pyribenzoxim]
Damage (in %) to rice (rice; Table 8 field trial, post-emergence 2-4-leaf stage, scoring 28 days after application, 30 g of AS/ha): 0% | Herbicidal effect (in %) against IPOHE [5]: 78%

CC1=C(c2ccccc2)C(=O)N(C(C)(C)c2cc(Cl)cc(Cl)c2)CO1 [(B4.26), oxaziclomefone]
Damage (in %) to rice (rice; Table 4 field trial, post-emergence 2-4-leaf stage, scoring 28 days after application, 30 g of AS/ha): 15% | Damage (in %) to rice (rice; Table 4 field trial, post-emergence 2-4-leaf stage, scoring 28 days after application, 60 g of AS/ha): 19% | Herbicidal effect (in %) against ELEIN (Eleusine indica (ELEIN); 30 g of AS/ha): 0% | Herbicidal effect (in %) against ELEIN (Eleusine indica (ELEIN); 60 g of AS/ha): 37%

oxadiargyl [(B4.9)]
Herbicidal effect (in %) against ECHCO ([2]; Table 3 field trial, scoring 28 days after application, 25 g of AS/ha): 33% | Herbicidal effect (in %) against ECHCO ([2]; Table 3 field trial, scoring 28 days after application, 50 g of AS/ha): 43% | Herbicidal effect (in %) against ECHCO ([2]; Table 3 field trial, scoring 28 days after application, 100 g of AS/ha): 48%
